Laboratory results: patent US12599136B2, “Substituted isophthalic acid diamides and their use as herbicides” (Bayer Aktiengesellschaft, priority 2020, dated 2026)

What was measured:
Type in all cases: in vivo
Matricaria inodora [1] = experiment: Pre-emergence herbicidal action against MATIN; settings: visual score after 3 weeks vs untreated controls
Method in brief: (§1)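 Seeds sown in sandy loam, soil-covered; compound sprayed on soil surface pre-emergence. Application: WP/EC, 600–800 l/ha, 0.2% wetting agent. Readout: visual % damage at 3 weeks.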

Pharbitis purpurea [2] = experiment: Pre-emergence herbicidal action against PHBPU; settings: 80 g/ha; visual score after 3 weeks vs untreated controls
Text: Seeds of monocotyledonous and dicotyledonous weed plants and crop plants are laid out in sandy loam soil in wood-fiber pots and covered with soil. The compounds of the invention, formulated in the form of wettable powders (WP) or as emulsion concentrates (EC), are then applied to the surface of the covering soil in the form of an aqueous suspension or emulsion at a water application rate equivalent to 600 to 800 l/ha, with addition of 0.2% wetting agent. After the treatment, the pots are placed in a greenhouse and kept under good growth conditions for the trial plants. The damage to the test plants is scored visually after a test period of 3 weeks by comparison with untreated controls (herbicidal activity in percent (%): 100% activity=the plants have died, 0% activity=like control plants). […] The tables below illustrate, in an illustrative manner, the post-emergence herbicidal action of the compounds of the invention, the herbicidal activity being stated in percent.

Pharbitis purpurea [3] = experiment: Post-emergence herbicidal action against PHBPU; settings: visual assessment about 3 weeks after treatment
Method in brief: (§2)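 Sandy loam, greenhouse; treatment 2–3 weeks after sowing, one-leaf stage. Aqueous suspension or emulsion from WP/EC sprayed on foliage (600–800 l/ha, 0.2% wetting agent). Readout: visual % action, ~3 weeks.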

Amaranthus retroflexus [4] = experiment: Post-emergence herbicidal action against AMARE; settings: visual assessment about 3 weeks after treatment
Method in brief: as §2

Digitaria sanguinalis = experiment: Post-emergence herbicidal action against DIGSA
Method in brief: as §2

Setaria viridis [5] = experiment: Pre-emergence herbicidal action against SETVI; settings: 80 g/ha
Method in brief: as §1

Avena fatua [6] = experiment: Post-emergence herbicidal action against AVEFA; settings: 20 g/ha, visual assessment about 3 weeks after treatment
Method in brief: as §2

Viola tricolor [7] = experiment: Pre-emergence herbicidal action against VIOTR; settings: 80 g/ha
Method in brief: as §1

Abutilon theophrasti [8] = experiment: Pre-emergence herbicidal action against ABUTH; settings: visual score after 3 weeks vs untreated controls
Method in brief: as §1

Echinochloa crus-galli = experiment: Pre-emergence herbicidal action against ECHCG; settings: 80 g/ha; visual score after 3 weeks vs untreated controls
Method in brief: as §1

Veronica persica [9] = experiment: Pre-emergence herbicidal action against VERPE; settings: 80 g/ha
Method in brief: as §1

Abutilon theophrasti [10] = experiment: Post-emergence herbicidal action against ABUTH
Method in brief: as §2

Avena fatua [11] = experiment: Pre-emergence herbicidal action against AVEFA; settings: 80 g/ha; visual score after 3 weeks vs untreated controls
Method in brief: as §1

Setaria viridis [12] = experiment: Post-emergence herbicidal action against SETVI; settings: visual assessment about 3 weeks after treatment
Method in brief: as §2

Amaranthus retroflexus [13] = experiment: Pre-emergence herbicidal action against AMARE; settings: visual score after 3 weeks vs untreated controls
Method in brief: as §1

Veronica persica [14] = experiment: Post-emergence herbicidal action against VERPE; settings: 20 g/ha, visual assessment about 3 weeks after treatment
Method in brief: as §2

Alopecurus myosuroides [15] = experiment: Post-emergence herbicidal action against ALOMY
Method in brief: as §2

Matricaria inodora [16] = experiment: Post-emergence herbicidal action against MATIN; settings: visual assessment about 3 weeks after treatment
Method in brief: as §2

Polygonum convolvulus = experiment: Pre-emergence herbicidal action against POLCO; settings: 80 g/ha
Method in brief: as §1

Alopecurus myosuroides [17] = experiment: Pre-emergence herbicidal action against ALOMY; settings: 80 g/ha; visual score after 3 weeks vs untreated controls
Method in brief: as §1

Lolium rigidum = experiment: Pre-emergence herbicidal action against LOLRI; settings: 80 g/ha
Method in brief: as §1

Viola tricolor [18] = experiment: Post-emergence herbicidal action against VIOTR; settings: 20 g/ha
Method in brief: as §2

Question: For `CCN(CC)C(=O)c1c(C(F)F)ccc(C(=O)Nc2nnnn2C)c1Cl` [Example 1-166], which “Pre-emergence action against MATIN” value (Matricaria inodora [1]; 20 g/ha) is on record?
Answer: 90%

Question: And the “Pre-emergence action against MATIN” value (Matricaria inodora [1]; 80 g/ha)?
Answer: 90%

Question: And the “Pre-emergence action against PHBPU” value (Pharbitis purpurea [2])?
Answer: 90%

Question: And the “Post-emergence action against PHBPU in %” value (Pharbitis purpurea [3]; 5 g/ha)?
Answer: 90%

Question: And the “Post-emergence action against PHBPU in %” value (Pharbitis purpurea [3]; 20 g/ha)?
Answer: 90%

Question: And the “Post-emergence action against AMARE in %” value (Amaranthus retroflexus [4]; 5 g/ha)?
Answer: 100%

Question: What about the “Post-emergence action against AMARE in %” value (Amaranthus retroflexus [4]; 20 g/ha) of the same compound?
Answer: 100%

Question: What about the “Post-emergence action against DIGSA in %” value (Digitaria sanguinalis; 5 g/ha) of the same compound?
Answer: 90%

Question: And the “Post-emergence action against DIGSA in %” value (Digitaria sanguinalis; 20 g/ha)?
Answer: 90%

Question: What about the “Pre-emergence action against SETVI” value (Setaria viridis [5]) of the same compound?
Answer: 100%

Question: What about the “Post-emergence action against AVEFA in %” value (Avena fatua [6]) of the same compound?
Answer: 80%

Question: What about the “Pre-emergence action against VIOTR” value (Viola tricolor [7]) of the same compound?
Answer: 100%

Question: And the “Pre-emergence action against ABUTH” value (Abutilon theophrasti [8]; 20 g/ha)?
Answer: 100%

Question: And the “Pre-emergence action against ABUTH” value (Abutilon theophrasti [8]; 80 g/ha)?
Answer: 100%

Question: And the “Pre-emergence action against ECHCG” value (Echinochloa crus-galli)?
Answer: 100%

Question: What about the “Pre-emergence action against VERPE” value (Veronica persica [9]) of the same compound?
Answer: 100%

Question: What about the “Post-emergence action against ABUTH” value (Abutilon theophrasti [10]; 5 g/ha) of the same compound?
Answer: 80%

Question: And the “Post-emergence action against ABUTH” value (Abutilon theophrasti [10]; 20 g/ha)?
Answer: 90%

Question: What about the “Pre-emergence action against AVEFA” value (Avena fatua [11]) of the same compound?
Answer: 90%

Question: What about the “Post-emergence action against SETVI in %” value (Setaria viridis [12]; 5 g/ha) of the same compound?
Answer: 80%

Question: What about the “Post-emergence action against SETVI in %” value (Setaria viridis [12]; 20 g/ha) of the same compound?
Answer: 100%

Question: What about the “Pre-emergence action against AMARE” value (Amaranthus retroflexus [13]; 20 g/ha) of the same compound?
Answer: 100%

Question: What about the “Pre-emergence action against AMARE” value (Amaranthus retroflexus [13]; 80 g/ha) of the same compound?
Answer: 100%

Question: And the “Post-emergence action against VERPE in %” value (Veronica persica [14])?
Answer: 80%

Question: And the “Post-emergence action against ALOMY” value (Alopecurus myosuroides [15]; 5 g/ha)?
Answer: 80%

Question: And the “Post-emergence action against ALOMY” value (Alopecurus myosuroides [15]; 20 g/ha)?
Answer: 80%

Question: What about the “Post-emergence action against MATIN in %” value (Matricaria inodora [16]; 5 g/ha) of the same compound?
Answer: 80%

Question: And the “Post-emergence action against MATIN in %” value (Matricaria inodora [16]; 20 g/ha)?
Answer: 90%

Question: What about the “Pre-emergence action against POLCO” value (Polygonum convolvulus) of the same compound?
Answer: 80%

Question: And the “Pre-emergence action against ALOMY” value (Alopecurus myosuroides [17])?
Answer: 90%

Question: What about the “Pre-emergence action against LOLRI” value (Lolium rigidum) of the same compound?
Answer: 80%

Question: What about the “Post-emergence action against VIOTR in %” value (Viola tricolor [18]) of the same compound?
Answer: 80%
